In data set [1] the target is T1, α1B-Adrenergic receptor (Rattus norvegicus, UniProt P15823).
T1 construct: gene Adra1b
Kind of data set: MDS Pharma Services binding screen at […].

In a further data set the target is T2, Dopamine D2S receptor (Homo sapiens, UniProt P14416).
T2 construct: gene DRD2; D2S
Description: MDS Pharma Services binding screen at […].

In data set [2] the target is T3, Serotonin 5-HT2c receptor (Homo sapiens, UniProt P28335).
T3 construct: gene HTR2C
Kind of data set: MDS Pharma Services binding screen at […].

For a further data set, the target named is T4, Histamine H2 receptor (Homo sapiens, UniProt P25021).
T4 construct: gene HRH2
Description: MDS Pharma Services binding screen at […].

The target of a further data set is T5, α1D-Adrenergic receptor (Homo sapiens, UniProt P25100).
T5 construct: gene ADRA1D
Description: MDS Pharma Services binding screen at […].

For the next data set, the target named is T6, Adenosine A2A (Homo sapiens, UniProt P29274).
T6 construct: gene ADORA2A
Description: biochemical. On the set-up: MDS Pharma Lead Profiling screen, binding assays, per cent inhibition, duplicate. On the procedure: (§1) The activity of Dimebon against selected set of biochemical targets was performed by MDS Pharma Services . The Dimebon was provided to MDS Pharma as dry powder, dissolved in DMSO and tested in 10 μM concentrations. The standard Lead Profiling + CYP450 screen was performed according to MDS Pharma specifications with additional custom-chosen targets added to the screen as indicated. To further understand potential mechanisms responsible for clinical effects of Dimebon, we evaluated Dimebon against a set of selected biochemical targets. Dimebon evaluation was performed by MDS Pharma Services . The standard Lead Profiling + CYP450 screen was performed with additional custom-selected targets added to the screen. The results of the screen obtained at 10 μM of Dimebon are provided as Additional File 3. […] Low affinity (50–60% inhibition) interactions were also observed for CYP450, 2C19 receptor, voltage-gated L-type Ca^2+ channel, Dopamine D4.2 receptor, and Serotonin 5-HT1 receptor. […] Supplementary file 1750-1326-3-15-S3.pdf: Additional file 3 The results of Dimebon screening against a selected set of biochemical targets. The complete results obtained by MDS Pharma with a selected list of biochemical targets using 10 μM of Dimebon as a probe. The Cat numbers refer to the MDS Pharma Services assay specification. The receptors and species are listed. Dimebon was tested at 10 μM concentratio in duplicate. The % inhibition by Dimebon is shown numerically and graphically for each receptor. Significant targets (defined as % inhibition > 50%) are highlighted in yellow. Click here for file

For another data set, the target named is T7, Bradykinin B1 (Homo sapiens, UniProt P46663).
T7 construct: gene BDKRB1
Kind of data set: biochemical. On the set-up: MDS Pharma Lead Profiling screen, binding assays, per cent inhibition, duplicate. How it is done: as §1

In a further data set the target is T8, Calcium Channel N-Type (Rattus norvegicus, UniProt Q02294).
T8 construct: gene Cacna1b
Description: biochemical. On the set-up: MDS Pharma Lead Profiling screen, binding assays, per cent inhibition, duplicate. On the procedure:
as §1

A further data set concerns the target T9, Dopamine D1 (Homo sapiens, UniProt P21728).
T9 construct: gene DRD1
Description: biochemical. Details: MDS Pharma Lead Profiling screen, binding assays, per cent inhibition, duplicate. How it is done:
as §1

For the next data set, the target named is T10, Histamine H1 receptor (Homo sapiens, UniProt P35367).
T10 construct: gene HRH1
Description: biochemical. On the set-up: MDS Pharma Lead Profiling screen, binding assays, per cent inhibition, duplicate. On the procedure:
as §1

In another data set the target is T11, Muscarinic M1 (Homo sapiens, UniProt P11229).
T11 construct: gene CHRM1
Kind of data set: biochemical. Details: MDS Pharma Lead Profiling screen, binding assays, per cent inhibition, duplicate. On the procedure:
as §1

A further data set deals with T12, Neuropeptide Y Y1 (Homo sapiens, UniProt P25929).
T12 construct: gene NPY1R
Description: biochemical. Details: MDS Pharma Lead Profiling screen, binding assays, per cent inhibition, duplicate. How it is done:
as §1

In the next data set the target is T13, Neuropeptide Y Y2 (Homo sapiens, UniProt P49146).
T13 construct: gene NPY2R
Kind of data set: biochemical. Details: MDS Pharma Lead Profiling screen, binding assays, per cent inhibition, duplicate. On the procedure:
as §1

For the next data set, the target named is T14, Opiate delta (OP1, DOP) (Homo sapiens, UniProt P41143).
T14 construct: gene OPRD1
Kind of data set: biochemical. On the set-up: MDS Pharma Lead Profiling screen, binding assays, per cent inhibition, duplicate. On the procedure:
as §1

Another data set deals with T15, Prostanoid EP4 (Homo sapiens, UniProt P35408).
T15 construct: gene PTGER4
Description: biochemical. On the set-up: MDS Pharma Lead Profiling screen, binding assays, per cent inhibition, duplicate. How it is done:
as §1

For the next data set, the target named is T16, Serotonin 5-HT1B (Rattus norvegicus, UniProt P28564).
T16 construct: gene Htr1b
Description: biochemical. On the set-up: MDS Pharma Lead Profiling screen, binding assays, per cent inhibition, duplicate. How it is done: as §1

In data set [3] the target is T3, Serotonin 5-HT2c receptor. Description: biochemical. Details: MDS Pharma Lead Profiling screen, binding assays, per cent inhibition, duplicate. On the procedure:
as §1

A further data set deals with T17, Serotonin 5-HT4 (Cavia porcellus, UniProt O70528).
T17 construct: gene HTR4
Description: biochemical. Details: MDS Pharma Lead Profiling screen, binding assays, per cent inhibition, duplicate. How it is done:
as §1

Data set [4] addresses T18, Transporter, Norepinephrine (NET) (Homo sapiens, UniProt P23975).
T18 construct: gene SLC6A2
Description: biochemical. Details: MDS Pharma Lead Profiling screen, binding assays, per cent inhibition, duplicate. How it is done: as §1

The target in data set [5] is T1, α1B-Adrenergic receptor. Kind of data set: biochemical. On the set-up: MDS Pharma Lead Profiling screen, binding assays, per cent inhibition, duplicate. On the procedure: as §1
A further data set concerns the target T19, Potassium Channel hERG (Homo sapiens, UniProt Q12809).
T19 construct: gene KCNH2
Description: in vitro. On the set-up: MDS Pharma Lead Profiling screen, binding assays, per cent inhibition, duplicate. How it is done: as §1, with “Dimebon was tested at 10 μM concentratio in duplicate. The % inhibition by Dimebon is shown numerically and graphically for each receptor. Significant targets (defined as % inhibition > 50%) are highlighted in yellow. Click here for file” left out

The target of data set [6] is T20, Nicotinic Acetylcholine alpha1, Bungarotoxin (Homo sapiens, UniProt P02708).
T20 construct: gene CHRNA1
Kind of data set: biochemical. The following applies: read-out: % INHIBITION
Details: MDS Pharma Lead Profiling screen, binding assays, per cent inhibition, duplicate.

A value given as a limit tells only on which side of the number the result lay.

T1 sequence (P15823 whole entry): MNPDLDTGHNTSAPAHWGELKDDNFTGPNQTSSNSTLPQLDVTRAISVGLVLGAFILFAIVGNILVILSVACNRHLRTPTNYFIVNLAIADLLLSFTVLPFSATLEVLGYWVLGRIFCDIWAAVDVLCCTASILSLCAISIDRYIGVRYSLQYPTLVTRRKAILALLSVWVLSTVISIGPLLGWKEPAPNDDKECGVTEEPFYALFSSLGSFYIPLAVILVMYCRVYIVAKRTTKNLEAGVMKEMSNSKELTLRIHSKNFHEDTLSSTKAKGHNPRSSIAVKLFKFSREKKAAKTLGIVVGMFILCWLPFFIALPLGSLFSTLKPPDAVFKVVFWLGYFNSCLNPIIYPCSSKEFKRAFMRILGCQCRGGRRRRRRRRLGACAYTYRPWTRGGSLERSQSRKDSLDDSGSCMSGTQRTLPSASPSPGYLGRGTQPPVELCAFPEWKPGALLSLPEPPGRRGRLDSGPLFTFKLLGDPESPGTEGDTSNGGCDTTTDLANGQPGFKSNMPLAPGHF
T3 sequence (P28335 33-458): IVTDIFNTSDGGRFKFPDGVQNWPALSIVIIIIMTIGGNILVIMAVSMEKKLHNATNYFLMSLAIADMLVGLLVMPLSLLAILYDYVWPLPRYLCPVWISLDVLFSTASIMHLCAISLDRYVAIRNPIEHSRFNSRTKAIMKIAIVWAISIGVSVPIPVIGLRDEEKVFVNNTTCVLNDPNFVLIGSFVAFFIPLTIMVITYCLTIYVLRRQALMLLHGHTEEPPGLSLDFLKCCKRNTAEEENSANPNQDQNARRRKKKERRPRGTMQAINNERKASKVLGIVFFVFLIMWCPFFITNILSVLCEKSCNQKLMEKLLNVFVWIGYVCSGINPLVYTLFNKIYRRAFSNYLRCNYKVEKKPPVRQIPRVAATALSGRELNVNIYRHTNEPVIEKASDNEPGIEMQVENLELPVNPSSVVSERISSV
T16 sequence (P28564 whole entry): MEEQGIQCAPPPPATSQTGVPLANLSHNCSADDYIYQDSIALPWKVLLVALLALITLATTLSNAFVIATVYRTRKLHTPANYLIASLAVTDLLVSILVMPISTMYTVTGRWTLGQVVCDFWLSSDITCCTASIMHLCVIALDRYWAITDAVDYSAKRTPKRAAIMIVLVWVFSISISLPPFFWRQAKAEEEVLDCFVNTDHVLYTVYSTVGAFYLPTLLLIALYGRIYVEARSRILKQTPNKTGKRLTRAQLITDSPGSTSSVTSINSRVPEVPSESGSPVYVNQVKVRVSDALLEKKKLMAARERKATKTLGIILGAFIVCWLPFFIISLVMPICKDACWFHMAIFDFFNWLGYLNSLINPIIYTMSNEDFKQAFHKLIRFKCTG
T6 sequence (P29274 whole entry): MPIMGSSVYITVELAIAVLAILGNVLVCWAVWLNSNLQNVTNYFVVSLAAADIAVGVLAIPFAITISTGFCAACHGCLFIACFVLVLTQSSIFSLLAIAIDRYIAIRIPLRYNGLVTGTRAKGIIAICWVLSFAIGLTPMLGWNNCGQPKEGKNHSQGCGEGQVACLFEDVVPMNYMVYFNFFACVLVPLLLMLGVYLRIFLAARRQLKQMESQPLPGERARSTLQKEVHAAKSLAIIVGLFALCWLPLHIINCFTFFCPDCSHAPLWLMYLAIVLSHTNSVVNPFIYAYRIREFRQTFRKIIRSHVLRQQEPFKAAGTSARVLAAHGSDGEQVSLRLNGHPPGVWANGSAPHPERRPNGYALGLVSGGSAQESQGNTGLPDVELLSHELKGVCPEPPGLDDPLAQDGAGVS
T10 sequence (P35367 whole entry): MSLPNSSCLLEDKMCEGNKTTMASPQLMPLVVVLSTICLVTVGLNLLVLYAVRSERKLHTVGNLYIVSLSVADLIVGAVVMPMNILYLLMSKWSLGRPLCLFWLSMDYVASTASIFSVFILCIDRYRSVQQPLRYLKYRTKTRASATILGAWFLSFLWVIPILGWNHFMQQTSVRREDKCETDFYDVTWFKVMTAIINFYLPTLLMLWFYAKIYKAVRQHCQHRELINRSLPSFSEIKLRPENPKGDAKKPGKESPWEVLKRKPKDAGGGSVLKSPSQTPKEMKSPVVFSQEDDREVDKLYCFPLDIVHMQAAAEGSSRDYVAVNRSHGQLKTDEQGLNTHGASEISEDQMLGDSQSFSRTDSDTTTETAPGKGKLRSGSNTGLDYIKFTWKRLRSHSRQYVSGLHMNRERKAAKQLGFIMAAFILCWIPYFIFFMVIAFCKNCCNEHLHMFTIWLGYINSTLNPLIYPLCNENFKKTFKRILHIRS
T5 sequence (P25100 whole entry): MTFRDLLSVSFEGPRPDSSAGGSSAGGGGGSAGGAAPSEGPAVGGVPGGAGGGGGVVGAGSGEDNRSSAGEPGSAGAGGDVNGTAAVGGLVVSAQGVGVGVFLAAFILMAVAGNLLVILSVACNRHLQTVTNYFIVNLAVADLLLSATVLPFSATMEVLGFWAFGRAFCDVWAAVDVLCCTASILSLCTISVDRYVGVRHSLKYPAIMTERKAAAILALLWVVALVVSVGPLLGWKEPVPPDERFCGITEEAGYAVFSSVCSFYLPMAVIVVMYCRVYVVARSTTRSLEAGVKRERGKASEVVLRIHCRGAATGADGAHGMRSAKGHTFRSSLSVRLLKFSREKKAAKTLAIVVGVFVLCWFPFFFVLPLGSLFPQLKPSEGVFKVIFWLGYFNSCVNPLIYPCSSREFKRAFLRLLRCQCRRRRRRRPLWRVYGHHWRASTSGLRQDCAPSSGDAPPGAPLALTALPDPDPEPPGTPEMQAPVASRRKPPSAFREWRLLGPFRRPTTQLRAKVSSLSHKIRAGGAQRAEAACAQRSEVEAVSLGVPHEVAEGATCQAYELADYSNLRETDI
T14 sequence (P41143 whole entry): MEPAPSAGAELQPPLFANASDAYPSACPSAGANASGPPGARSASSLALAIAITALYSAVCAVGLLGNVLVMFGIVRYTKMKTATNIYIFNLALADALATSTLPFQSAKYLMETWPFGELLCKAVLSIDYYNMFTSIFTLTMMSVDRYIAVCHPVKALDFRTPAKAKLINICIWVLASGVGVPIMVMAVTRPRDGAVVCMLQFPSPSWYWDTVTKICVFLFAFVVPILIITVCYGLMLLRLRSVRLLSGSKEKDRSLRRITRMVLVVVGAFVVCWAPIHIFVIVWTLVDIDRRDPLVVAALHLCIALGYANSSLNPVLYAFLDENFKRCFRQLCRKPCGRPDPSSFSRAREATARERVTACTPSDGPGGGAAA
T11 sequence (P11229 whole entry): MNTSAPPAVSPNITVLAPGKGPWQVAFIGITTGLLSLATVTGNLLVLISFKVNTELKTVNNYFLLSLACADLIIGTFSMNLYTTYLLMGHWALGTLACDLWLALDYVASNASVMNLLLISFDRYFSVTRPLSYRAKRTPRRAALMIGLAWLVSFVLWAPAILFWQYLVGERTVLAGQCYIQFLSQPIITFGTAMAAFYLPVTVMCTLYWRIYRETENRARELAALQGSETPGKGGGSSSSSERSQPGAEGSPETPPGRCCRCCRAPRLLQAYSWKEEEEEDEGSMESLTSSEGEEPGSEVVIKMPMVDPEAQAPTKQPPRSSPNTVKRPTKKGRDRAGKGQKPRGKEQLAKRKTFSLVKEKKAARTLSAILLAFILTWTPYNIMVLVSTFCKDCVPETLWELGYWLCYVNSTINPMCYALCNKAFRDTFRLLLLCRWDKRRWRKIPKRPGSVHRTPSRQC
T13 sequence (P49146 whole entry): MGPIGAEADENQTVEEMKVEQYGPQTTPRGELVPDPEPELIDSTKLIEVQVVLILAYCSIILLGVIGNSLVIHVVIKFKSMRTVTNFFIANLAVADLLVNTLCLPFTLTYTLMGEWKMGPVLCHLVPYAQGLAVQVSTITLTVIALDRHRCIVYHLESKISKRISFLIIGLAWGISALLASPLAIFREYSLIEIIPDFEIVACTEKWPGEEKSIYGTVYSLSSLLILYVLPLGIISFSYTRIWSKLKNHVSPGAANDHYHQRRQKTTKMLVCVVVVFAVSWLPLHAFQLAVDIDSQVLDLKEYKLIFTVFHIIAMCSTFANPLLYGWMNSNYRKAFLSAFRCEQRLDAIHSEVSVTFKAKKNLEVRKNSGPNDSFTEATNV
T18 sequence (P23975 whole entry): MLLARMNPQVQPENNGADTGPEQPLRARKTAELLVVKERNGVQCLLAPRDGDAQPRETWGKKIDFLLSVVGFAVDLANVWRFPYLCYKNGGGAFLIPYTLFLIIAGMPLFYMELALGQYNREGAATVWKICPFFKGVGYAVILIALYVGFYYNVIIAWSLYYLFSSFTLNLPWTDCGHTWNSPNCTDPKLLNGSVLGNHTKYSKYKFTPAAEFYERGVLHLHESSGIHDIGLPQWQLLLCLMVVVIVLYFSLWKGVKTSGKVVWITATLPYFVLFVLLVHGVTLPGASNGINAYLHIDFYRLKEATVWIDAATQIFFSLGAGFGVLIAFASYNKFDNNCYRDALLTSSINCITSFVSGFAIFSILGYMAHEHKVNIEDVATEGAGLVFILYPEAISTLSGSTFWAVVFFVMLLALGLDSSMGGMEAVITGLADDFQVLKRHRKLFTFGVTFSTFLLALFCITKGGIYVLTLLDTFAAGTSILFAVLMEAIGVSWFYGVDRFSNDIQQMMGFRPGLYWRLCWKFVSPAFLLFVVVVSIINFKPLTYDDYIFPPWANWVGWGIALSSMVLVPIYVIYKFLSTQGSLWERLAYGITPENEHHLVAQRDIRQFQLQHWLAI

For the molecule `Cc1ccc2c(c1)c1c(n2CCc2ccc(C)nc2)CCN(C)C1` [Dimebon, 2,3,4,5-Tetrahydro-2,8-dimethyl-5-(2-(6-methyl-3-pyridyl)ethyl)-1H-pyrido(4,3-b)indole], the inhibition at 10 µM at α1B-Adrenergic receptor [1] is > 90%; at Dopamine D2S receptor it was 70 to 80%; in [2] it was > 90%; at Histamine H2 receptor, > 90%; on α1D-Adrenergic receptor, > 90%; at Adenosine A2A, -3%. Besides, the inhibition at 10 µM at Bradykinin B1 was -9%; at Calcium Channel N-Type, 0%; at Dopamine D1, 70%; on Histamine H1 receptor it was 101%; on Muscarinic M1, 9%; at Neuropeptide Y Y1, 4%. Moreover, the inhibition at 10 µM is -5% at Neuropeptide Y Y2; 0% at Opiate delta (OP1, DOP); 1% on Prostanoid EP4; 48% on Serotonin 5-HT1B; 95% in data set [3]; 17% at Serotonin 5-HT4. The inhibition at 10 µM in data set [4] came out at 20%; at α1B-Adrenergic receptor [5] it was 100%; on Potassium Channel hERG, 45%; in [6] it was 1%.

The values are drawn from PMC2577671, “Evaluation of Dimebon in cellular model of Huntington's disease” (Molecular Neurodegeneration, 2008).
